Data: patent US20260201324A1, “METHOD FOR DIFFERENTIATING NEURAL CREST STEM CELLS COMPRISING AXIAL SPECIFICATION INFORMATION” (BLESS BIOTHERAPEUTICS INC., priority 2022, published 2026)

B1: BMP4: signaling protein promoting ETS1 in initial neural crest stem cells (protein, UniProt P12644 293-408, looked up)
Bone morphogenetic protein 4: SPKHHSQRARKKNKNCRRHSLYVDFSDVGWNDWIVAPPGYQAFYCHGDCPFPLADHLNSTNHAIVQTLVNSVNSSIPKACCVPTELSAISMLYLDEYDKVVLKNYQEMVVEGCGCR

Columns and labels:
Type in all cases: cell-based, human
[1] = tested on: NCSCs at the neural plate border-stage; assay: mRNA expression of cranial and cardiac NCSC markers after second differentiation
Description: The NCSCs (those on Day 5 of the differentiation) at the neural plate border-stage obtained through the first differentiation in Example 3-1 were re-distributed and each treated with bFGF or CHIR99021+ retinoic acid to be differentiated into cranial NCSCs or cardiac NCSCs.

initial NCSCs = assay: Mechanism analysis of axial specification of initial NCSCs by signaling factors (immunochemical analysis, FACS); details: initial NCSCs isolated on Day 5; for ETS1 protein expression: FGF2 effect through BMP4
Description: (§1) The initial NCSCs were isolated on Day 5 of the differentiation, and then, on Days 5 or 10, the expression of the ETS1 protein was confirmed in the FGF2-treated NCSCs by immunochemical analysis, and the direct effects of various signaling factors on the initial NCSCs were confirmed by FACS analysis.

SOX9 reporter hESCs = assay: Differentiation into cranial NCSCs using SOX9 reporter hESC (FACS)
Description: as §1
When NCSCs were differentiated without FGF2 treatment using SOX9: reporter hESC, a known marker of cranial NCSCs, the differentiation efficiency into cranial NCSCs was approximately 25%, and when treated with bFGF, the percentage of SOX9-expressing cells was 80% or more (FIGS. 8C and 8D).

[2] = tested on: initial NCSCs (expressing p75 NGFR or HNK1); assay: Gene expression analysis of NCSCs after second differentiation with axial specification stimulating factor
Protocol: The NCSCs at the neural plate border-stage (cells on Day 5 of the differentiation) expressing p75 NGFR or HNK1 isolated by FACS in Example 3-1 were re-seeded at 300,000 cells per well in a 24-well plate coated with Geltrex, Matrigel, or Laminin+Fibronectin. After 24 hours, the PIM medium added on Day 5 for stabilization was gradually changed to a neurobasal medium containing 2% B-27 supplement, 1% N2 supplement, and 1% Glutamax together with fibroblast growth factor 2 (FGF2) (Table 2). As an axial specification stimulating factor, FGF2 was added to the culture medium on days 6 to 10 of differentiation, and the proliferated neural crest stem cells were purified by FACS using an antibody against the neural crest stem cell surface antigen p75 NGFR on days 11 to 14 of differentiation (FIG. 4).
Accordingly, it was confirmed that the role of the non-NCSCs is to activate FGF signaling of the initial NCSCs, inducing to cranial specification.

[3] = NCSCs treated at second differentiation

Molecule	mRNA expression of PRRX2 (cranial NCSC marker) [1]	mRNA expression of SOX9 (cranial NCSC marker) [1]	mRNA expression of TWIST1 (cranial NCSC marker) [1]	ZIC1 gene expression (initial NCSCs)	ETS1 protein expression (initial NCSCs)	ZIC1 gene expression (initial NCSCs; listed as bFGF)	percentage of SOX9-expressing cells (SOX9 reporter hESCs; SOX9 reporter hESC, cranial NCSC differentiation) [%]	differentiation efficiency from SOX9 reporter hESCs into cranial neural crest stem cells (SOX9 reporter hESCs; two-step differentiation method)	expression of the HOX gene [2, 3]	expression of the TWIST1 gene (marker gene of cranial NCSCs) [2, 3]	expression ratio of ETS1/ZIC1 ([2]; second culture for 5 days, isolated initial NCSC group and unisolated mixed cell group)	ZIC1 gene expression in single cells ([2]; single NCSCs, from Day 4)
fibroblast growth factor 2 [FGF2]	increased	increased	increased	inhibit	promotion	inhibitory effect	≥ 80	about 80%	decreased expression	increased expression	increased	significant decrease
B1	–	–	–	–	promotion	–	–	–	–	–	–	–
